# Data: ChEMBL document CHEMBL2331210, “New 2-benzylsulfanyl-nicotinic acid based 1,3,4-oxadiazoles: their synthesis and biological evaluation” (2013)
# How the values were obtained:
# Pseudomonas aeruginosa = test: Antimicrobial activity against Pseudomonas aeruginosa MTCC 2488 assessed as growth inhibition measured after overnight incubation by broth dilution method; assay type: functional
# MDA-MB-435 = test: Antitumor activity against human MDA-MB-435 cells assessed as cell growth at 0.1 uM; assay type: functional; conditions: read-out: Activity
# NCI-H23 = test: Antitumor activity against human NCI-H23 cells assessed as cell growth at 0.1 uM; assay type: functional; conditions: read-out: Activity
# M14 = test: Antitumor activity against human M14 cells assessed as cell growth at 0.1 uM; assay type: functional; conditions: read-out: Activity
# CAKI-1 = test: Antitumor activity against human CAKI-1 cells assessed as cell growth at 0.1 uM; assay type: functional; conditions: read-out: Activity
# OVCAR-4 = test: Antitumor activity against human OVCAR4 cells assessed as cell growth at 0.1 uM; assay type: functional; conditions: read-out: Activity
# 786-0 = test: Antitumor activity against human 786-0 cells assessed as cell growth at 0.1 uM; assay type: functional; conditions: read-out: Activity
# Candida albicans = test: Antimicrobial activity against Candida albicans MTCC 227 assessed as growth inhibition measured after overnight incubation by broth dilution method; assay type: functional
# SK-MEL-2 = test: cells; conditions: Homo sapiens, SK-MEL-2, read-out: Activity
# Description: Antitumor activity against human SK-MEL-2 cells assessed as cell growth at 0.1 uM
# Aspergillus niger = test: Antimicrobial activity against Aspergillus niger MTCC 282 assessed as growth inhibition measured after overnight incubation by broth dilution method; assay type: functional
# [1] = Antitumor activity against human EKVX cells assessed as cell growth at 0.1 uM; assay type: functional; conditions: read-out: Activity
# KM12 = test: Antitumor activity against human KM12 cells assessed as cell growth at 0.1 uM; assay type: functional; conditions: read-out: Activity
# U-251 = test: Antitumor activity against human U251 cells assessed as cell growth at 0.1 uM; assay type: functional; conditions: read-out: Activity
# UACC-62 = test: Antitumor activity against human UACC62 cells assessed as cell growth at 0.1 uM; assay type: functional; conditions: read-out: Activity
# SF-295 = test: Antitumor activity against human SF295 cells assessed as cell growth at 0.1 uM; assay type: functional; conditions: read-out: Activity
# MDA-MB-468 = test: Antitumor activity against human MDA-MB-468 cells assessed as cell growth at 0.1 uM; assay type: functional; conditions: read-out: Activity
# MCF7 = test: Antitumor activity against human MCF7 cells assessed as cell growth at 0.1 uM; assay type: functional; conditions: read-out: Activity
# SK-OV-3 = test: Antitumor activity against human SKOV3 cells assessed as cell growth at 0.1 uM; assay type: functional; conditions: read-out: Activity
# HOP-62 = test: Antitumor activity against human HOP62 cells assessed as cell growth at 0.1 uM; assay type: functional; conditions: read-out: Activity
# HCT-116 = test: Antitumor activity against human HCT116 cells assessed as cell growth at 0.1 uM; assay type: functional; conditions: read-out: Activity
# SK-MEL-28 = test: Antitumor activity against human SK-MEL-28 cells assessed as cell growth at 0.1 uM; assay type: functional; conditions: read-out: Activity
# RPMI-8226 = test: Antitumor activity against human RPMI8226 cells assessed as cell growth at 0.1 uM; assay type: functional; conditions: read-out: Activity
# SN12C = test: Antitumor activity against human SN12C cells assessed as cell growth at 0.1 uM; assay type: functional; conditions: read-out: Activity
# HCT-15 = test: Antitumor activity against human HCT15 cells assessed as cell growth at 0.1 uM; assay type: functional; conditions: read-out: Activity
# RXF 393 = test: Antitumor activity against human RXF393 cells assessed as cell growth at 0.1 uM; assay type: functional; conditions: read-out: Activity
# SW-620 = test: Antitumor activity against human SW620 cells assessed as cell growth at 0.1 uM; assay type: functional; conditions: read-out: Activity
# Malme-3M = test: Antitumor activity against human MALME-3M cells assessed as cell growth at 0.1 uM; assay type: functional; conditions: read-out: Activity
# OVCAR-5 = test: Antitumor activity against human OVCAR5 cells assessed as cell growth at 0.1 uM; assay type: functional; conditions: read-out: Activity
# Streptococcus pyogenes = test: Antimicrobial activity against Streptococcus pyogenes MTCC 442 assessed as growth inhibition measured after overnight incubation by broth dilution method; assay type: functional
# DU-145 = test: Antitumor activity against human DU145 cells assessed as cell growth at 0.1 uM; assay type: functional; conditions: read-out: Activity
# [2] = Antitumor activity against human HCC2998 cells assessed as cell growth at 0.1 uM; assay type: functional; conditions: HCC 2998, read-out: Activity
# LOX IMVI = test: Antitumor activity against human LOXIMVI cells assessed as cell growth at 0.1 uM; assay type: functional; conditions: read-out: Activity
# NCI-H460 = test: Antitumor activity against human NCI-H460 cells assessed as cell growth at 0.1 uM; assay type: functional; conditions: read-out: Activity
# Staphylococcus aureus = test: Antimicrobial activity against Staphylococcus aureus MTCC 96 assessed as growth inhibition measured after overnight incubation by broth dilution method; assay type: functional
# ACHN = test: Antitumor activity against human ACHN cells assessed as cell growth at 0.1 uM; assay type: functional; conditions: read-out: Activity
# SNB-19 = test: Antitumor activity against human SNB19 cells assessed as cell growth at 0.1 uM; assay type: functional; conditions: read-out: Activity
# [3] = Antitumor activity against human Hs 578T cells assessed as cell growth at 0.1 uM; assay type: functional; conditions: read-out: Activity
# HT-29 = test: Antitumor activity against human HT-29 cells assessed as cell growth at 0.1 uM; assay type: functional; conditions: read-out: Activity
# NCI-H522 = test: Antitumor activity against human NCI-H522 cells assessed as cell growth at 0.1 uM; assay type: functional; conditions: read-out: Activity
# SF-539 = test: Antitumor activity against human SF539 cells assessed as cell growth at 0.1 uM; assay type: functional; conditions: read-out: Activity
# Aspergillus clavatus = test: Antimicrobial activity against Aspergillus clavatus MTCC 1323 assessed as growth inhibition measured after overnight incubation by broth dilution method; assay type: functional
# SR = test: Antitumor activity against human SR cells assessed as cell growth at 0.1 uM; assay type: functional; conditions: read-out: Activity
# BT-549 = test: Antitumor activity against human BT549 cells assessed as cell growth at 0.1 uM; assay type: functional; conditions: read-out: Activity
# COLO 205 = test: Antitumor activity against human COLO205 cells assessed as cell growth at 0.1 uM; assay type: functional; conditions: read-out: Activity
# MOLT-4 = test: Antitumor activity against human MOLT4 cells assessed as cell growth at 0.1 uM; assay type: functional; conditions: read-out: Activity
# Escherichia coli = test: Antimicrobial activity against Escherichia coli MTCC 443 assessed as growth inhibition measured after overnight incubation by broth dilution method; assay type: functional
# SNB-75 = test: Antitumor activity against human SNB75 cells assessed as cell growth at 0.1 uM; assay type: functional; conditions: read-out: Activity
# SK-MEL-5 = test: Antitumor activity against human SK-MEL-5 cells assessed as cell growth at 0.1 uM; assay type: functional; conditions: read-out: Activity
# PC-3 = test: Antitumor activity against human PC3 cells assessed as cell growth at 0.1 uM; assay type: functional; conditions: read-out: Activity
# K562 = test: Antitumor activity against human K562 cells assessed as cell growth at 0.1 uM; assay type: functional; conditions: read-out: Activity
# IGROV-1 = test: Antitumor activity against human IGROV1 cells assessed as cell growth at 0.1 uM; assay type: functional; conditions: read-out: Activity
# UO-31 = test: Antitumor activity against human UO31 cells assessed as cell growth at 0.1 uM; assay type: functional; conditions: read-out: Activity
# NCI/ADR-RES = test: Antitumor activity against human NCI/ADR-RES cells assessed as cell growth at 0.1 uM; assay type: functional; conditions: read-out: Activity
# A549 = test: Antitumor activity against human A549/ATCC cells assessed as cell growth at 0.1 uM; assay type: functional; conditions: read-out: Activity
# A498 = test: Antitumor activity against human A498 cells assessed as cell growth at 0.1 uM; assay type: functional; conditions: read-out: Activity
# SF-268 = test: Antitumor activity against human SF268 cells assessed as cell growth at 0.1 uM; assay type: functional; conditions: read-out: Activity
# TK-10 = test: Antitumor activity against human TK10 cells assessed as cell growth at 0.1 uM; assay type: functional; conditions: read-out: Activity
# UACC-257 = test: Antitumor activity against human UACC257 cells assessed as cell growth at 0.1 uM; assay type: functional; conditions: read-out: Activity
# T47D = test: Antitumor activity against human T47D cells assessed as cell growth at 0.1 uM; assay type: functional; conditions: read-out: Activity
# [4] = system: Mycobacterium tuberculosis; test: Antitubercular activity against Mycobacterium tuberculosis H37Rv assessed as growth inhibition after 12 to 28 days by L.J. agar MIC method; assay type: functional
# OVCAR-8 = test: Antitumor activity against human OVCAR8 cells assessed as cell growth at 0.1 uM; assay type: functional; conditions: read-out: Activity
# HOP-92 = test: Antitumor activity against human HOP92 cells assessed as cell growth at 0.1 uM; assay type: functional; conditions: read-out: Activity
# OVCAR-3 = test: Antitumor activity against human OVCAR3 cells assessed as cell growth at 0.1 uM; assay type: functional; conditions: read-out: Activity
# HL-60 = test: Antitumor activity against human HL60(TB) cells assessed as cell growth at 0.1 uM; assay type: functional; conditions: read-out: Activity
# MDA-MB-231 = test: Antitumor activity against human MDA-MB-231/ATCC cells assessed as cell growth at 0.1 uM; assay type: functional; conditions: read-out: Activity
structure (smiles),measurement,setting,value
CN1CCN(C(=O)CSc2nnc(-c3cccnc3SCc3ccccc3)o2)CC1,MIC,Pseudomonas aeruginosa,200 µg/mL
same,growth at 0.1 µM,MDA-MB-435,93.8%
same,growth at 0.1 µM,NCI-H23,87.6%
same,growth at 0.1 µM,M14,99.6%
same,growth at 0.1 µM,CAKI-1,93.4%
same,growth at 0.1 µM,OVCAR-4,57.4%
same,growth at 0.1 µM,786-0,109%
same,MIC,Candida albicans,500 µg/mL
same,growth at 0.1 µM,SK-MEL-2,101%
same,MIC,Aspergillus niger,500 µg/mL
same,growth at 0.1 µM,[1],70.7%
same,growth at 0.1 µM,KM12,72.8%
same,growth at 0.1 µM,U-251,83.9%
same,growth at 0.1 µM,UACC-62,76.8%
same,growth at 0.1 µM,SF-295,89.6%
same,growth at 0.1 µM,MDA-MB-468,74.8%
same,growth at 0.1 µM,MCF7,76.7%
same,growth at 0.1 µM,SK-OV-3,101%
same,growth at 0.1 µM,HOP-62,97%
same,growth at 0.1 µM,HCT-116,94.7%
same,growth at 0.1 µM,SK-MEL-28,107%
same,growth at 0.1 µM,RPMI-8226,61.5%
same,growth at 0.1 µM,SN12C,64.2%
same,growth at 0.1 µM,HCT-15,86.5%
same,growth at 0.1 µM,RXF 393,89.1%
same,growth at 0.1 µM,SW-620,97.2%
same,growth at 0.1 µM,Malme-3M,97.1%
same,growth at 0.1 µM,OVCAR-5,101%
same,MIC,Streptococcus pyogenes,125 µg/mL
same,growth at 0.1 µM,DU-145,81.7%
same,growth at 0.1 µM,[2],90.5%
same,growth at 0.1 µM,LOX IMVI,90.3%
same,growth at 0.1 µM,NCI-H460,90.1%
same,MIC,Staphylococcus aureus,250 µg/mL
same,growth at 0.1 µM,ACHN,80.8%
same,growth at 0.1 µM,SNB-19,82%
same,growth at 0.1 µM,[3],93.2%
same,growth at 0.1 µM,HT-29,93.7%
same,growth at 0.1 µM,NCI-H522,71.3%
same,growth at 0.1 µM,SF-539,98.6%
same,MIC,Aspergillus clavatus,1000 µg/mL
same,growth at 0.1 µM,SR,79.8%
same,growth at 0.1 µM,BT-549,95.4%
same,growth at 0.1 µM,COLO 205,110%
same,growth at 0.1 µM,MOLT-4,48.2%
same,MIC,Escherichia coli,100 µg/mL
same,growth at 0.1 µM,SNB-75,83%
same,growth at 0.1 µM,SK-MEL-5,84.8%
same,growth at 0.1 µM,PC-3,57.4%
same,growth at 0.1 µM,K562,83%
same,growth at 0.1 µM,IGROV-1,75.3%
same,growth at 0.1 µM,UO-31,30.9%
same,growth at 0.1 µM,NCI/ADR-RES,89.2%
same,growth at 0.1 µM,A549,68.5%
same,growth at 0.1 µM,A498,78.5%
same,growth at 0.1 µM,SF-268,67.5%
same,growth at 0.1 µM,TK-10,115%
same,growth at 0.1 µM,UACC-257,96.8%
same,growth at 0.1 µM,T47D,55.3%
same,growth inhibition (GI),[4],97%
same,MIC,"[4]; Mycobacterium tuberculosis, H37Rv",250 µg/mL
same,growth at 0.1 µM,OVCAR-8,97.7%
same,growth at 0.1 µM,HOP-92,43.3%
same,growth at 0.1 µM,OVCAR-3,92%
same,growth at 0.1 µM,HL-60,70.3%
same,growth at 0.1 µM,MDA-MB-231,56.5%
